Test results published in patent US10080366B2, “Agent for increasing sugar content in fruit” (RIKEN, priority 2012, dated 2018).
Like-named read-outs stand apart in the source and are kept apart here.

How the values were obtained:
[1] = system: Tomato; settings: dilution ratio 100 (10 g/L); 6 days after treatment
[2] = system: fruit of trellised grape (variety: Pinot noir)
Description: To fruit of trellised grape (variety: Pinot noir), an aqueous potassium hydrogen carbonate solution (20 g/L) was applied three times at intervals of one week. The fruit was harvested 21 days after the first application, and the sugar content, acidity, and amino acid concentration were measured. In addition, the harvested fruit was kept in an air-conditioned greenhouse (25° C.) for 10 days, and the drying state of the fruit was observed.

[3] = system: Lettuce (Great Lakes); settings: 10 g/L aqueous solution at intervals of one week; browning index 0-5, five plants
Text: (§1) In general, calcium deficiency in lettuce and celery occurs from summer to fall. Heart rot symptom develops in lettuce, and change in color and blackening of new leaves develop in celery. In addition, tipburn may also occur in lettuce. A 10 g/L aqueous potassium hydrogen carbonate solution was applied at intervals of one week to lettuce and celery in which no symptom of calcium deficiency had yet developed, and whether or not the symptom became milder than that of an untreated group was observed. Five plants were subjected to each treatment, and the degree of the symptom of calcium deficiency was determined on the basis of the degree of browning of leaves at the harvest.
(§2) 0: no browning, 0.5: browning occurred only in very small portions on the edges of leaves, 1.0: browning occurred in portions on the edges of […], 2.0: browning occurred from edges of leaves to the inside, 3.0: the degree of browning was considerable, 5.0: the browning of leaves was remarkable. Degree of occurrence=(Index 5×the number of plants in which the corresponding blowing occurred+Index 3×the number of plants in which the corresponding blowing occurred+Index 2×the number of plants in which the corresponding blowing occurred+Index 1×the number of plants in which the corresponding blowing occurred+Index 0.5×the number of plants in which the corresponding blowing occurred)/5 plants

[4] = system: Celery; settings: 10 g/L aqueous solution at intervals of one week; browning index 0-5, five plants
Text: as §1, §2

[5] = system: harvested fruit of grape (variety: Barikan); settings: for Sugar content (%) on date of application (Jun. 2): before application
Description: The fruit of grape was maintained in an air-conditioned greenhouse (temperature: 25° C.), and measured for the mass over time. The sugar content of the fruit was measured before the application and 8 days after the application with a sugar content meter. Next, on the assumption that the change in the mass of the fruit was entirely due to the change in water content, calculated values of the amount of decrease in mass and the sugar content on the date (June 2) of the application were determined […] by using the following calculation formula. (Calculated as follows: the sugar content (%) calculated value))=the sugar content (%) before application×the mass (g) on the date of application/the mass (g) on the date of measurement))

[6] = system: Grape (Nagano Purple), Grape (Riesling); settings: 10 g/L, three times at intervals of one week
Description: (§3) To each of the plants shown in Table 15 below, an aqueous potassium hydrogen carbonate solution (10 g/L) was applied three times at intervals of one week about one month before the harvest time. Each of the plants was harvested four weeks later. The degree of the fruit cracking of the fruit was compared with that of untreated fruit, and a fruit cracking-suppression ratio was determined. […] The fruit cracking ratio (%)=the number of pieces of the fruit which underwent fruit cracking/the total number of pieces of the fruit×100 The fruit cracking-suppression ratio (%)=(1−the fruit cracking ratio (%) of a treated group/the fruit cracking ratio (%) of an untreated group)×100

[7] = system: Tomato (Regina); settings: 10 g/L, three times at intervals of one week
Description: as §3

[8] = system: Cherry (Sato Nishiki); settings: 10 g/L, three times at intervals of one week; harvested four weeks later
Description: as §3

[9] = system: Mikan; settings: dilution ratio 100 (10 g/L); 6 days after treatment
[10] = system: clusters of grape (variety: Crimson); assay: Estimated transpiration ratio of grape clusters (Example 9); type: in vivo; settings: 10 g/L; 8 days after treatment
[11] = 10 g/L, 25° C., mass 100 g on date of application

O=C([O-])O.[K+] [Potassium hydrogen carbonate, potassium hydrogen carbonate]
Ratio (%) of decrease in body weight of fruit [1]: 14.8%
Acidity ([2]; 20 g/L x3, at harvest): 0.8
Amino acid concentration ([2]; 20 g/L x3, at harvest): 2800 µg/L
State 10 days after harvest (drying state) ([2]; 20 g/L x3, kept in greenhouse (25° C.) for 10 days): dried faster than the untreated grape
Sugar content (%) ([2]; 20 g/L, three times at intervals of one week, at harvest, 21 days after first application): 46%
Degree of occurrence of calcium deficiency [3]: 0.2
Degree of occurrence of calcium deficiency [4]: 0.3
decrease of mass of fruit in 8 days (June 2 to June 10) ([5]; 10 g/L): 27.3%
Sugar content (%) 8 days later, actually measured value ([5]; 10 g/L, 25° C.): 24.0%
Sugar content (%) 8 days later, actually measured value ([5]; 10 g/L, 25° C., listed as potassium hydrogen carbonate): 24%
Mass (g) 6 days later (Jun. 8) [5, 11]: 79.4 g
Mass (g) 8 days later (Jun. 10) [5, 11]: 72.7 g
Sugar content (%) 8 days later, calculated value ([5]; 10 g/L, calculated from decrease in mass): 24.8%
Sugar content (%) on date of application (Jun. 2) [5]: 18.0%
Sugar content (%) on date of application (Jun. 2) ([5]; listed as potassium hydrogen carbonate): 18%
Fruit cracking-suppression ratio ([6]; Nagano Purple): 97%
Fruit cracking-suppression ratio ([6]; Riesling): 98%
Fruit cracking-suppression ratio [7]: 95%
Fruit cracking-suppression ratio [8]: 98%
Ratio (%) of decrease in body weight of fruit [9]: 12.6%
Estimated transpiration ratio (%) Average [10]: 31%
Estimated transpiration ratio (%) First [10]: 33%
Estimated transpiration ratio (%) Second [10]: 28%
